Data as given in US6610694B1, “Condensed pyridazine compounds, their production and use” (Takeda Chemical Industries, Ltd., priority 1998, dated 2003).
Structures can show the parent of a compound that is named as a salt.

Assays:
[1] = test system: histamine-induced skin reactions in guinea pigs; assay: Effect on histamine-induced skin reactions in guinea pigs (skin vascular permeability); type: in vivo, guinea pig; conditions: oral 3 mg/kg
Method: Effect on Histamine-induced Skin Reactions in Guinea Pigs
Male Hartley guinea pigs weighing about 500 g were used. After the dorsal hair was shaved under ether anesthesia, 1 ml of a 2.5% pontamine sky blue solution was injected intravenously administered, and then 0.1 ml of histamine at 3 μg/ml was injected intradermally into 2 sites (left and right) in the back. Thirty minutes after the injection of histamine, the animals were killed by bleeding and the skin was removed. Two perpendicular diameters (mm) of each blue spot on the inside of the skin were measured and multiplied; the mean for the two products was taken as the microvascular permeability index. Test compounds were suspended in a 5% gum arabic solution and orally administered in a volume of 0.2 ml/100 g body weight 1 hour before histamine administration. Animals in the control group received the same volume of a 5% gum arabic solution. The suppression rate of the sample for the title reaction was calculated using Equation 1, and the results are given in Table 1.
Inhibition (%) of histamine-induced skin reactions=100×(1−vascular permeability index in the presence of drug/vascular permeability index in control group) Equation 1
In the same manner as Experimental Example 1a, the effects of various example compounds on histamine-induced skin reactions in guinea pigs were examined.

[2] = test system: guinea pig eosinophils; assay: Suppression of LTB4-induced chemotactic reaction in guinea pig eosinophils; type: cell-based
Method: 1) Preparation of Guinea Pig Eosinophils
To male Hartley guinea pigs, 2 ml of equine serum (Bio-Whittaker, Inc.) was intraperitoneally administered once weekly for 8 consecutive weeks. At 48 hours after final administration, 75 ml of physiological saline was intraperitoneally injected, after which the saline was recovered and centrifuged at 400×g for 5 minutes. The resulting sediment was suspended in 5 ml of Percoll solution (density (d)=1.07) and layered on top of the multiple layers of different densities of Percoll solution (density(d)=1.112, 5 ml; d=1.095, 10 ml; d=1.090, 10 ml; d=1.085, 5 ml), followed by centrifugation at 1,000×g for 25 minutes (20° C.). The cell layer formed at the interface between densities 1.112 and 1.095 was collected. Erythrocytes present in the collected cell sediment were removed by hypotonic treatment (suspended in water for […]).
The cell sediment was washed 3 times with Hanks' solution containing 10 mM Hepes (Dojin Kagaku) (Hanks-Hepes) and suspended in a Hanks-Hepes solution containing 2% human serum albumin (Wako Pure Chemical Industry or Sigma) (Hanks-Hepes-HSA) to a final concentration of 5.56×10^6 cells/ml. Eosinophil purity was 90%, viability being over 98%.
2) Determination of Chemotactic Reaction Suppression
To a 24-well petri dish, which serves as a lower chamber, 600 μl of Hanks-Hepes-HSA solution containing LTB4 (final concentration 10^−8 M, Cascade Biochemical Ltd.), was transferred, followed by incubation at 37° C. for 30 minutes in a carbon dioxide incubator. Separately, 200 μl of eosinophil suspension (5×10^6 cells/ml), previously incubated at 37 C for 15 minutes, was added to Chemotaxicell (polycarbonate membrane, pore size 3 μm, thickness 10 μm), which serves as an upper chamber, after the upper chamber was attached to the 24-well petri dish. After 2 hours of reaction in the CO2 incubator, the Chemotaxicell was removed; 60 μl of a 2% (w/v) solution of EDTA in physiological saline was added to the liquid in the lower chamber. After the mixture was on cooled ice, the cells migrating into the lower chamber were counted using a blood cell counter [Coulter Counter (trade name)]. The test drug, dissolved in N,N-dimethyl formamide (DMF), was added to both the upper and lower chambers to a final concentration of 10^-5 M.
Chemotactic reaction suppression rate=[1−(number of migrating cells in the presence of drug/number of migrating cells in the absence of drug).]×100 Equation 2
Suppression rates of LTB4-induced chemotactic reaction by test substances (1×10^−5 M) were calculated using the above equation.
In the same manner as Experimental Example 2a, the percent suppression of LTB4-induced chemotactic reactions by various example compounds was calculated.

[3] = same manner as Experimental Example 1a, Table 3
[4] = LTB4-induced chemotaxis, same manner as Experimental Example 2a (1×10^−5 M), Table 4

Row | melting point | SMILES | also measured
1 | 129 °C | CCOC(=O)C(C)(C)n1nc2ccc(OCCCN3CCC(OC(c4ccccc4)c4ccccc4)CC3)nn2c1=O.Cl | –
2 | 144 to 146 °C | c1ccc(C(OC2CCN(CCCCCCOc3ccc4nncn4n3)CC2)c2ccccc2)cc1 (as salt: fumarate) [Example 7a, 6-[6-[4-(Diphenylmethoxy)piperidino]hexyloxy][1,2,4]triazolo[4,3-b]pyridazine Fumarate] | –
3 | 132 to 134 °C | c1ccc(C(c2ccccc2)N2CCN(CCCOc3ccc4nncn4n3)CC2)cc1 [Example 1a, 6-[3-[4-(Diphenylmethyl)-1-piperazinyl]propoxy][1,2,4]triazolo[4,3-b]pyridazine] | –
4 | 143 to 144 °C | c1ccc(C(c2ccccc2)N2CCN(CCCSc3ccc4nncn4n3)CC2)cc1 [Example 2a, 6-[3-[4-(Diphenylmethyl)-1-piperazinyl]propylthio][1,2,4]triazolo[4,3-b]pyridazine] | –
5 | 139 to 140 °C | Cn1nc2ccc(OCCCN3CCC(OC(c4ccccc4)c4ccccc4)CC3)nn2c1=O [Example 2b, 6-[3-[4-(Diphenylmethoxy)piperidino]propoxy]-2-methyl[1,2,4]triazolo[4,3-b]pyridazin-3(2H)-one] | –
6 | 156 to 170 °C | O=c1[nH]nc2ccc(NCCCN3CCC(OC(c4ccccc4)c4ccccc4)CC3)nn12 [Example 3b, 6-[3-[4-(Diphenylmethoxy)piperidino]propylamino][1,2,4]triazolo[4,3-b]pyridazin-3(2H)-one] | Suppression (%) of histamine-induced skin vascular permeability elevation, oral administration at 3 mg/kg [1, 3]: 94%
7 | 167 to 168 °C | c1ccc(C(OC2CCN(CCCNc3ccc4nncn4n3)CC2)c2ccccc2)cc1 [Example 4a, 6-[3-(4-(Diphenylmethoxy)piperidino]propylamino][1,2,4]triazolo[4,3-b]pyridazine] | –
8 | 209 to 211 °C | O=c1[nH]nc2ccc(OCCCN3CCC(OC(c4ccccc4)c4ccccc4)CC3)nn12 [Example 4b, 6-[3-[4-(Diphenylmethoxy)piperidino]propoxy][1,2,4]triazolo[4,3-b]pyridazin-3(2H)-one] | Suppression (%) of histamine-induced skin vascular permeability elevation, oral administration at 3 mg/kg [1, 3]: 92%
9 | 124 to 125 °C | CCOC(=O)Cn1nc2ccc(OCCCN3CCC(OC(c4ccccc4)c4ccccc4)CC3)nn2c1=O [Example 5b, Ethyl 2-[6-[3-[4-(Diphenylmethoxy)piperidino]propoxy]-3-oxo[1,2,4]triazolo[4,3-b]pyridazin-2(3H)-yl]acetate] | –
10 | 149 to 150 °C | c1ccc(C(OC2CCN(CCOc3ccc4nncn4n3)CC2)c2ccccc2)cc1 [Example 6a, 6-(2-[4-(Diphenylmethoxy)piperidino]ethoxy][1,2,4]triazolo[4,3-b]pyridazine] | –
11 | – | c1ccc(C(OC2CCN(CCCCCCOc3ccc4nncn4n3)CC2)c2ccccc2)cc1 [Example 7a, 6-[6-[4-(Diphenylmethoxy)piperidino]hexyloxy][1,2,4]triazolo[4,3-b]pyridazine Fumarate] | Suppression (%) of histamine-induced skin vascular permeability elevation, oral administration at 3 mg/kg ([1]; 1 hour before intradermal histamine, Table 1): 89%; Suppression rate (%) ([2]; LTB4 10^−8 M-induced chemotaxis, test substance 1×10^−5 M, Table 2): 36%
12 | 181 to 185 °C | CC(C)(C(=O)O)n1nc2ccc(NCCCN3CCC(OC(c4ccccc4)c4ccccc4)CC3)nn2c1=O [Example 9b, 2-[6-[3-[4-(Diphenylmethoxy)piperidino]propylamino]-3-oxo[1,2,4]triazolo[4,3-b]pyridazin-2(3H)-yl]-2-methylpropionic Acid] | –
13 | 168 to 171 °C | CC(C)(C)C(=O)OCn1nc2ccc(NCCCN3CCC(OC(c4ccccc4)c4ccccc4)CC3)nn2c1=O [Example 10b, 6-[3-[4-(Diphenylmethoxy)piperidino]propylamino]-2-(pivaloyloxymethyl)[1,2,4]triazolo[4,3-b]pyridazin-3(2H)-one] | Suppression rate (%) [2, 4]: 55%
14 | 133 to 139 °C | c1ccc(C(c2ccccc2)N2CCN(CCCCCCNc3ccc4nncn4n3)CC2)cc1 [Example 11a, 6-[6-[4-(Diphenylmethyl)-1-piperazinyl]hexylamino][1,2,4]triazolo[4,3-b]pyridazine] | –
15 | 162 °C | CC(C)(C)C(=O)OCOC(=O)C(C)(C)n1nc2ccc(NCCCN3CCC(OC(c4ccccc4)c4ccccc4)CC3)nn2c1=O [Example 11b, pivaloyloxymethyl 2-[6-[3-[4-(Diphenylmethoxy)piperidino]propylamino]-3-oxo[1,2,4]triazolo[4,3-b]pyridazin-2(3H)-yl]-2-methylpropionate] | Suppression rate (%) [2, 4]: 100%
16 | 95 to 97 °C | OC(COc1ccc2nncn2n1)CN1CCN(C(c2ccccc2)c2ccccc2)CC1 (centres unmarked) [Example 15a, 6-[3-[4-(Diphenylmethyl)-1-piperazinyl]-2-hydroxypropoxy][1,2,4]triazolo[4,3-b]pyridazine] | –
17 | 155 to 157 °C | CC(C)(C(=O)O)c1nnc2ccc(NCCCN3CCC(OC(c4ccccc4)c4ccccc4)CC3)nn12 [Example 19a, 2-[6-[3-[4-(Diphenylmethoxy)piperidino]propylamino][1,2,4]triazolo[4,3-b]pyridazin-3-yl]-2-methylpropionic Acid] | –
18 | 129 to 133 °C | CCOC(=O)c1nnc2ccc(NCCCN3CCC(OC(c4ccccc4)c4ccccc4)CC3)nn12 [Example 21a, Ethyl 6-[3-[4-(Diphenylmethoxy)piperidino]propylamino][1,2,4]triazolo[4,3-b]pyridazine-3-carboxylate] | –
19 | 133 to 136 °C | CC(C)(C(N)=O)c1nnc2ccc(OCCCN3CCC(OC(c4ccccc4)c4ccccc4)CC3)nn12 [Example 23a, 2-[6-[3-[4-(Diphenylmethoxy)piperidino]propoxy][1,2,4]triazolo[4,3-b]pyridazin-3-yl]-2-methylpropionamide] | –
20 | 165 to 167 °C | CCOC(=O)C(C)(C)NC(=O)c1nnc2ccc(NCCCN3CCC(OC(c4ccccc4)c4ccccc4)CC3)nn12 [Example 25a, N-[6-[3-[4-(Diphenylmethoxy)piperidino]propylamino][1,2,4]triazolo[4,3-b]pyridazine-3-carbonyl]-2,2-dimethylglycine Ethyl Ester] | –
21 | 191 to 193 °C | CC(C)(NC(=O)c1nnc2ccc(NCCCN3CCC(OC(c4ccccc4)c4ccccc4)CC3)nn12)C(=O)O [Example 26a, N-[6-[3-[4-(Diphenylmethoxy)piperidino]propylamino][1,2,4]triazolo[4,3-b]pyridazine-3-carbonyl]-2,2-dimethylglycine] | –
22 | 163 to 165 °C | CC(C)(NC(=O)c1nnc2ccc(OCCCN3CCC(OC(c4ccccc4)c4ccccc4)CC3)nn12)C(=O)O [Example 28a, N-[6-[3-[4-(Diphenylmethoxy)piperidino]propoxy][1,2,4]triazolo[4,3-b]pyridazine-3-carbonyl]-2,2-dimethylglycine] | –
23 | 152 to 155 °C | CCOC(=O)CNC(=O)c1nnc2ccc(NCCCN3CCC(OC(c4ccccc4)c4ccccc4)CC3)nn12 [Example 29a, N-[6-[3-[4-(Diphenylmethoxy)piperidino]propylamino][1,2,4]triazolo[4,3-b]pyridazine-3-carbonyl]glycine ethyl ester] | –
24 | 182 to 184 °C | O=C(O)CNC(=O)c1nnc2ccc(NCCCN3CCC(OC(c4ccccc4)c4ccccc4)CC3)nn12 [Example 30a, N-[6-[3-[4-(Diphenylmethoxy)piperidino]propylamino][1,2,4]triazolo[4,3-b]pyridazine-3-carbonyl]glycine] | –
